# Source: patent US9951055B2, “Thiazole-based inhibitors of scavenger receptor BI” (THE BROAD INSTITUTE, INC., priority 2012, dated 2018)
# Entries after “also recorded” stand apart in the source; their conditions may differ.
# Tests used:
# [1] = system: Jc1 378-1 TagRFP reporter HCV virus; test: In vitro inhibition of HCV in Huh-7.5 cells; type: cell-based, hepatitis C virus; conditions: for inhibition of HCV replication: Huh-7.5 cells, MOI=0.1, 3 dpi; for mean fluorescence intensity (MFI) of HCV positive cells: normalized to DMSO control
# Method: The compound of formula (II) was also tested for the in vitro inhibition of HCV. Huh-7.5 cells were seeded in a 24-well plates (50,000 cells/well) and incubate over night. The medium was changed to compound/solvent containing medium 2 hours prior to infection (200 μL/well) with a reporter HCV virus called Jc1 378-1 TagRFP. A dilute virus stock was used to infect at a MOI of 0.1 (7,500 IU/well) in 10 μL medium. 10 μL of virus dilution was added to the wells containing compound/solvent (thereby dilution the compounds by only ˜5%). Infections were incubated for 4 hours before washing off the inoculum 1× with 500 μL medium. Fresh compound/solvent containing medium was added to the cells (500 μL/well), and further incubated for 48-72 hours. Cells were harvested at 48-72 hpi and viral replication was determined by fixing the cells and measuring replication by FACS (fluorescence activated cell sorting). Controls having antibodies that neutralize HCV by blocking E2 (2 μg/mL) and controls having antibodies that block a HCV receptor CD81 (2 μg/mL) were used.
# A series of tests were conducted using the compound of Formula II ML278), other known inhibitors of SRB1 and controls with cells infected with hepatitis C virus (HCV). The cells (Huh-7.5 cells infected with Jc1 378-1 TagRFP (MOI=0.1) 3 dpi) were treated with the following SR-BI compounds and controls:
# Three different infection protocols were followed: (1) no wash—virus inoculum was removed 4 hpi and fresh medium containing compounds added without washing cells; (2) 5× wash—virus inoculum was removed 4 hpi, cells were washed 5× with PBS and fresh medium containing compounds added; and (3) no wash Opt—infection were performed in serum-free OptiMem; virus inoculum was removed 4 hpi and fresh medium containing compounds added without washing cells. FIG. 107 provides a comparison of the three different infection set-ups. FIG. 108 provides a comparison of two independent experiments.
# C384S SR-BI = biological target: T1, C384S SR-BI (Mus musculus, UniProt Q61009, C384S); test: Radioactive HDL uptake assay (mutant SR-BI); type: cell-based, murine
# T1 construct: expressed in transfected cells; host or cells: CHO cell line lacking LDL receptors (variant of ldlA[mSR-BI])
# T1 sequence (Q61009 1-509 C384S): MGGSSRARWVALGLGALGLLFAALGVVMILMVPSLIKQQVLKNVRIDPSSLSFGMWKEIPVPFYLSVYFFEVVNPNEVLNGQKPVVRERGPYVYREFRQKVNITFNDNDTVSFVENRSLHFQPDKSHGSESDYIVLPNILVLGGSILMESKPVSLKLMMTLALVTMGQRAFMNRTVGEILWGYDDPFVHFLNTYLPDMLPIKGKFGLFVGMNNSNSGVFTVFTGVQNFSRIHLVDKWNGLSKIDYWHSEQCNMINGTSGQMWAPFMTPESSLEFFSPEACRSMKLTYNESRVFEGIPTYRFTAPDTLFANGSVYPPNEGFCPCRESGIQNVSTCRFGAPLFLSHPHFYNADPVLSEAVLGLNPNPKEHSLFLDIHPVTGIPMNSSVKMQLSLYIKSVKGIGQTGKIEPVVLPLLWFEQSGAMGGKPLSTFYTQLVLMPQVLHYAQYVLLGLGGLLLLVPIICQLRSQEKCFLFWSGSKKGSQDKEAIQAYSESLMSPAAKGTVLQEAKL
# Source text: Radioactive HDL Uptake Assay (mutant SR-BI) (SA 9: AID No. 588837)
# BLT-1 is known to interact at cysteine 384 of SR-BI (16). […] This assay is used to determine if the compounds work in a similar fashion to BLT-1 and require Cys384 to alter the binding of HDL particles and uptake of the lipid to the mutant SR-BI scavenger receptor, using an alternative means of labeling HDL-cholesterol particles and avoiding any type of fluorescence measurement. To measure this lipid uptake event, HDL particles are labeled with [^3H]cholesteryl ester and added to C384S SR-BI cells. Cells take up HDL lipids via the mutant SR-BI in 2 to 3 hours. After significant uptake of the HDL lipid, the radiolabel can be detected by liquid scintillation counting. The level of radioactivity correlates with the amount of HDL lipid uptake. The uptake of lipid from the HDL particles can be inhibited by the compound BLT-1 or when co-treated with an excess of unlabeled HDL. The mSR-BI cells utilized in the assay are a CHO cell line lacking expression of the LDL receptors and overexpressing the mutant scavenger receptor, C384S SR-BI.
Structure (SMILES),"EC50 ([1]; Hepatitis C virus, Huh7.5, read-out: EC50, HCV) [nM]","EC90 ([1]; Hepatitis C virus, Huh7.5, read-out: EC90, HCV) [nM]",inhibition of HCV replication ([1]; listed as SRB1-7),mean fluorescence intensity (MFI) of HCV positive cells [1],uptake of HDL in Cys384Ser mutant background (C384S SR-BI),inhibition of HCV replication ([1]; listed as SRB1-8)
"COCC(=O)N1CCc2cc(-c3csc(NC(=O)c4cc(OC)cc(OC)c4)n3)ccc21 [Compound 137, 3,5-Dimethoxy-N-(4-(1-(2-methoxyacetyl)indolin-5-yl)thiazol-2-yl)benzamide]",44,~500,inhibited viral replication; also recorded: able to inhibit HCV replication,this increase was not seen,can reduce uptake and efflux in the mutant background,
"CCCCCCC1CCCC1=NNC(N)=S (centres unmarked) [BLT-1, reference compound]",,,,increased mean fluorescence intensity (MFI) of HCV positive cells in a dose dependent manner,does not significantly reduce uptake of HDL or efflux of cholesterol,inhibited viral replication; also recorded: able to inhibit HCV replication
